Data from paper PMC12162926, “A novel strategy for identifying hepatotoxic constituents in traditional Chinese medicine using dose-normalized intracellular accumulation as a cytotoxicity indicator: a case study of Jinlingzi San” (Frontiers in Pharmacology, 2025).

Key:
L-02 cells [1] = test: Intracellular identification of L-02 cell-uptake components by LC–MS/MS; assay type: in vitro ADME, human; conditions: L-02 exposed to JLZS-containing medium 6.5 mg/mL for 2 h
Protocol: The powder of 25 g FT and 25 g RC was evenly blended and then refluxed twice with six-fold 50% ethanol (1: 6, w/v) for 1 h; the collected filtrate was evaporated to dryness and further dissolved in DMSO, after filtering using the 0.22-µm cellulose acetate membrane. JLZS-containing medium (6.5 mg/mL) was freshly prepared by diluting the filtrate with RPMI-1640. Likewise, RC-containing medium was freshly prepared in the same method independently.
L-02 cells were seeded on 9-cm-diameter cell culture plates; after ∼80% confluent, the cultured cells were incubated with 6.5 mg/mL JLZS-containing medium. After 2-h exposure, L-02 cells were quickly washed free of culture medium with cold PBS (−) twice and harvested with 1 mL of 0.25% trypsin-EDTA for cell isolation. The cell suspension (∼5 × 10^6 cells) was spun down, and the cells were further washed twice in cold PBS (−). Then, 200 µL of methanol was used to lyse the collected cells with vortex mixing for 1 min. The cell lysates were centrifuged at 12,000 rpm for 4 min, and 10 μL of the centrifugal supernatant was injected into the LC–MS/MS system for identified analysis.
The LC–MS/MS system consisted of a Thermo TSQ Quantum Ultra triple-quadrupole mass spectrometer equipped with an electrospray ionization source (San Jose, CA, United States). LCquan quantitation software (version 2.5.6, Thermo Fisher Scientific, Waltham, MA, USA) was used to control the LC–MS/MS system for data acquisition and analysis. Analytes and IS separation were conducted using a Waters XTerra® MS C18 column (3.0 mm × 50 mm, 5 µm) maintained at 20 °C. By injecting 5 µL samples with a flow rate of 0.2 mL/min, chromatographic separation was achieved using a mobile phase of 0.1% formic acid–water (A) and methanol (B) via gradient elution, 0.0–2.0 min, 35%–50% B; 2.0–2.1 min, 50%–55% B; 2.1–2.5 min, 55%–60% B; 2.5–14.0 min, 60% B. The analytes and IS were detected in the ESI source by polarity switching from positive for 0.0–8.0 min to negative-ion modes for 8.5–14.0 min in a single run with multiple reaction monitoring (MRM).

L-02 cells [2] = test: Intracellular accumulation in L-02 cells by LC–MS/MS; assay type: in vitro ADME, human; conditions: for Intracellular concentration: L-02, JLZS extracts 6.5 mg/mL, n = 6
L-02 cells [3] = test: Cell growth inhibition assay (CCK-8); assay type: cell-based, human; conditions: L-02, 24 h exposure, single compounds
[4] = Stability of analytes in cell lysates (LC–MS/MS method validation); assay type: physicochemical; conditions: n=3; for Post-preparation stability RE%: 4 ℃, 24 h at autosampler; for Short-term stability RE%: 12 h at room temperature; for Long-term stability RE%: -80℃ for a month; for Freeze-thaw stability RE%: three freeze-thaw
Protocol: The stability of seven analytes including short-term stability (12 h at room temperature), post-preparation stability at 4 ℃ (24 h at autosampler), freeze-thaw stability (three freeze-thaw stability) and long-term stability (-80℃ for a month) was tested by analyzing three replicates at low and high QC levels during various sample storage and handling process.

[5] = design: method as in Gu et al., 2021; conditions: pharmacokinetic level, JLZS vs single herb; ref Gu et al., 2021; cited from earlier work

SMILES | detection in cell lysates (L-02 cells [1]) | Intracellular concentration (L-02 cells [2]; time 0.25 h) | Intracellular concentration (L-02 cells [2]; time 0.5 h) | Intracellular concentration (L-02 cells [2]; time 1 h) | Intracellular concentration (L-02 cells [2]; time 1.5 h) | Intracellular concentration (L-02 cells [2]; time 2 h) | Intracellular concentration (L-02 cells [2]; time 3 h) | Intracellular concentration (L-02 cells [2]; time 5 h) | Intracellular concentration (L-02 cells [2]; time 8 h) | IC50 (cell viability) (L-02 cells [3]) | Post-preparation stability RE% ([4]; high QC level) | Post-preparation stability RE% ([4]; low QC level) | Short-term stability RE% ([4]; high QC level) | Short-term stability RE% ([4]; low QC level) | Long-term stability RE% ([4]; high QC level) | Long-term stability RE% ([4]; low QC level) | Freeze-thaw stability RE% ([4]; high QC level) | Freeze-thaw stability RE% ([4]; low QC level) | elimination in the JLZS group compared with the single-herb group [5] | exposure time at highest intracellular concentration (L-02 cells [2]; L-02 exposed to JLZS 6.5 mg/mL)
COc1cc2c(cc1OC)-c1cc3ccc(OC)c(OC)c3c[n+]1CC2 [PAL, palmatine] | found in the cell lysates | 11.6 ± 1.8 ng/mL | 15.6 ± 2.7 ng/mL | 29.6 ± 7.9 ng/mL | 40.2 ± 10.1 ng/mL | 49.4 ± 19.9 ng/mL | 65.7 ± 12.4 ng/mL | 96.9 ± 10.7 ng/mL | 99.5 ± 24.3 ng/mL | not detected IC50 values within the set concentration range | 6.8% | -1.3% | 2.5% | 6.5% | 0.0% | 6.4% | 6.5% | -3.5% | decreased significantly | –
c1cc2c(c3c1CC1c4cc5c(cc4CCN1C3)OCO5)OCO2 (stereo not shown) [THC, tetrahydrocoptisine] | found in the cell lysates | 15.8 ± 3.0 ng/mL | 13.3 ± 0.5 ng/mL | 15.0 ± 2.7 ng/mL | 17.7 ± 3.6 ng/mL | 20.3 ± 5.4 ng/mL | 15.8 ± 2.9 ng/mL | 15.1 ± 1.4 ng/mL | 13.3 ± 1.8 ng/mL | not detected IC50 values within the set concentration range | -0.9% | -0.6% | 4.6% | 3.4% | 1.2% | 5.3% | -1.4% | -2.5% | decreased significantly | –
CC(=O)O[C@@H]1C[C@H](O)[C@@]23CO[C@@H](O)[C@]1(C)[C@@H]2C[C@@H](O)[C@]1(C)[C@@H]3C(=O)[C@H](OC(C)=O)[C@@]2(C)[C@H](c3ccoc3)C[C@H]3O[C@]321 [TSN, toosendanin] | found in the cell lysates | 10.4 ± 1.1 ng/mL | 13.6 ± 4.0 ng/mL | 38.5 ± 10.2 ng/mL | 32.8 ± 13.6 ng/mL | 20.1 ± 2.8 ng/mL | 23.8 ± 4.4 ng/mL | 26.4 ± 9.2 ng/mL | 15.5 ± 3.4 ng/mL | not detected IC50 values within the set concentration range | 0.1% | 7.6% | -0.1% | 8.0% | 8.6% | 10.2% | -4.0% | 6.2% | decreased significantly | 1 h
